Results published in patent US4473577A, “2-Thiazolamine derivatives, process for preparing same, and pharmaceutical compositions comprising same” (Mitsui Toatsu Chemicals, Incorporated, priority 1982, dated 1984).
Structures can show the parent of a compound that is named as a salt. Where two headings read alike, the source gives them in different places.

Columns and labels:
[1] = test system: adjuvant arthritis induced in rats by injection of a tubercle bacillus adjuvant; type: in vivo, male rats of the SD strain
[2] = Test for acute oral toxicity; set-up: species or system male mice of the ddY strain; settings: mouse, in vivo, male ddY mice, 7 days observation, estimated
Protocol: Each of the three compounds used in Evaluation Tests 1 and 2 was dissolved or suspended in physiological saline and administered orally to a group of 5 male mice of the ddY strain. The LD50 value of the compound was estimated by observing these animals for 7 days after administration.

[3] = test system: delayed hypersensitivity induced in mice by picryl chloride; test: Augmentation test of delayed hypersensitivity (picryl chloride, ear thickness); type: in vivo, male mice of the ICR strain; settings: mouse ICR, 50 mg per kg orally, simultaneously with sensitization; ear thickness before and 24 hours after challenge (7 days after sensitization); average of 16 measurements; * = P<0.05 vs control
Text: L., and Ptak, W. "Contact and delayed hypersensitivity in the mouse I. Active sensitization and passive transfer," Immunology, 15, 405-416(1968)). In the following Evaluation Test 1, this experimental system was used to carry out an augmentation test of delayed hypersensitivity. Male mice of the ICR strain, weighing approximately 30 g, were used in groups of eight. These animals were sensitized by shaving the hair on the abdomen and applying thereto a 3% solution of picryl chloride in a 4:1 mixture of olive oil and acetone. Simultaneously with this sensitization, each of three compounds of the present invention was dissolved or suspended in physiological saline containing 0.2% carboxymethyl cellulose and administered orally to the animals in a dose of 50 mg per kg of body weight. A control group was treated solely with physiological saline containing 0.2% carboxymethyl cellulose. Seven days after sensitization, the animals were challenged by wrapping the tips of a forceps with pieces of felt, impregnating the felt with olive oil containing 1% picryl chloride, and pinching both ears of each animal. The thicknesses of the ears were measured before and 24 hours after the challenge, and the calculated present increase of ear thickness (the average of 16 measurements made of the ears of 8 animals) is shown in Table 1. […] The test results thus obtained were subjected to statistical analysis using the F.t test. The values marked with an asterisk (*) indicate that, when they were compared with the value of the control, the differences were significant at P<0.05.

[4] = rat SD, 5 mg per kg subcutaneously, nine times before and after adjuvant, left hind paw volume, * = P<0.05 vs control

Compound	Percent inhibition of swelling as compared with control group (average of 16-20 days) ([1]; rat, in vivo, sc) [%]	LD50 at 168 h [2] [mg/kg]	Percent increase of ear thickness [3] [%]	Percent inhibition of swelling as compared with control group (average of 16-20 days) [1, 4] [%]
c1ccc([C@H]2CN3CCSC3=N2)cc1 [Levamisole hydrochloride, reference compound]	19.8	200 to 300	31.2	
CO/N=C(\C(=O)OC)c1csc(NC(=O)OCC(Cl)(Cl)Cl)n1 [drawing 8]			33.4	
CCC(=O)Nc1nc(/C(=N/OC)C(=O)OC)cs1 [drawing 10]			35.2	
CO/N=C(\C(=O)OC)c1csc(NC(=O)OCC(Cl)(Cl)Cl)n1 [drawing 11]				39.5
CCC(=O)Nc1nc(/C(=N/OC)C(=O)OC)cs1 [drawing 13]				22.3
